Common to all, as to format: in vivo
Assay [1] deals with STZ-induced diabetic mice. Description: Blood glucose in the STZ-induced diabetic mice. The note with it: propolins study; for modulation of blood glucose: 8 weeks, dose 1.2-2.4% of the Januvia dose. On the procedure: The male FBV mice of 5 weeks old, commercially available from BioLASCO Co., Ilan, Taiwan, were acclimatized for 1 week, prior to administration of streptozotocin (STZ) at 40 mg/kg for 3 consecutive days. STZ was formulated with an aqueous solution of sodium citrate (pH 4.5, 73.5 mg/5 mL) on ice, and then 100 μL of the formulation was dosed by intraperitoneal injection. From day 2 in the 3 consecutive days, the mice were dosed with 5% (w/v) glucose water for 6 consecutive days. After allowing the mice to rest for 10 days, blood glucose levels were measured. After administration of STZ for 1 week, about 5 μL of blood was collected from each of the mice at the tail vein, and was assayed for blood glucose by a blood glucose monitor and chip (FORA, California, U.S.A.). After 1 week, blood glucose was detected once more, and whether blood glucose was smooth or not was evaluated prior to grouping. The values of blood glucose in all of the mice induced to suffer from diabetes were brought to fall within about 300±50 mg/dL. […]
(§1) An appropriate amount of propolins and its relevant derivatives, such as PPA, PPB, PPC, PPD, PPE, PPF, PPG, PPH, PPI or PPJ, was dissolved with 3 ml 95% alcohol and then uniformly mixed with 80 μL Tween 80; after concentrating under reduced pressure for removal of alcohol, it was uniformly dispersed into 16 ml water to give a liquid mixture of propolins. This mixture was fed by 200 μL gavage into the diabetic mice designated as the propolins and its relevant derivative group.
(§2) Sitagliptin (trade name: Januvia), commercially available from American Merck Co., was used as the DPP4 inhibitor. An appropriate amount of sitagliptin was dissolved in water to provide a final concentration allowing administration of the mice at a dose of 370 mg/kg. In the following example, Januvia was representative of the DPP4 inhibitors and acted as a positive control group for reference.
(§3) Tween 80 (80 μL) was mixed into 16 ml water to give a placebo, which was fed by 200 μL gavage into the STZ-induced diabetic mice or normal mice (i.e., the mice without induction for diabetes). Oral gavage was carried out once at a fixed time each day, and weight, feedstuff intake and water intake were measured weekly until tests were finished at 12-13 weeks.

Assay [2] deals with STZ-induced diabetic mice. In words: Feedstuff intake of the diabetic mice. The conditions noted are these: propolins study. As to the method: (§4) The male FBV mice of 5 weeks old, commercially available from BioLASCO Co., Ilan, Taiwan, were acclimatized for 1 week, prior to administration of streptozotocin (STZ) at 40 mg/kg for 3 consecutive days. STZ was formulated with an aqueous solution of sodium citrate (pH 4.5, 73.5 mg/5 mL) on ice, and then 100 μL of the formulation was dosed by intraperitoneal injection. From day 2 in the 3 consecutive days, the mice were dosed with 5% (w/v) glucose water for 6 consecutive days. After allowing the mice to rest for 10 days, blood glucose levels were measured. After administration of STZ for 1 week, about 5 μL of blood was collected from each of the mice at the tail vein, and was assayed for blood glucose by a blood glucose monitor and chip (FORA, California, U.S.A.). After 1 week, blood glucose was detected once more, and whether blood glucose was smooth or not was evaluated prior to grouping. The values of blood glucose in all of the mice induced to suffer from diabetes were brought to fall within about 300±50 mg/dL.
(§5) An appropriate amount of the Taiwan Green Propolis alcohol extract was dissolved with 3 ml 95% alcohol and then uniformly mixed with 80 μL Tween 80 as a cosolvent; after concentrating under reduced pressure for removal of alcohol, it was dispersed into 16 ml water to give a liquid mixture of the Taiwan Green Propolis extract. This mixture was fed by 200 μL gavage into the diabetic mice designated as the Taiwan Green Propolis extract group.
as §1, §2, §3

The test system of assay [3] is STZ-induced diabetic mice. In words: Water intake of the diabetic mice. The conditions noted are these: propolins study. As to the method: as §4, §5, §1, §2, §3
Assay [4] has as its system STZ-induced diabetic mice. Description: Oral glucose tolerance test (OGTT). The note with it: propolins study; for AUC value for blood glucose (integral area) / extent of reduction of AUC compared with the STZ group: OGTT. Set-up: reduction of AUC compared with the STZ group / extent of reduction of AUC compared with the STZ group: concentration or dose not given beside the values. On the procedure: as §4
After administration of the testing substance to the animals for 12 weeks, the OGTT test was performed for evaluation of secretion and effects of insulin. All of the mice in the test were administered with the testing substance and then fasted for 4 hours prior to blood sampling at the first point called point 0. Afterwards, the mice were fed by oral gavage with 200 μL glucose in water, equivalent to a dose of 1.0 g/kg. After administration, blood was collected for an assay of blood glucose at 15, 30, 60, 120 and 180 minutes, respectively. Therefore, a total of 6 points, including points at 0, 15, 30, 60, 120 and 180 minutes, were obtained. About 5 μL of blood was collected from each of the mice at the tail vein and was then assayed for blood glucose by the blood glucose monitor and chip (FORA, California, U.S.A.). The blood glucose values at the Y-axis were plotted against the time points at the X-axis. Each group was calculated for an area under curve for comparison. The efficacy in regulation of blood glucose was evaluated by the area showing a relationship between the testing substance and secretion and effects of insulin.

[5] abbreviates: after administration for 8 weeks by gavage daily, PPC 9.0, PPD 6.75, PPF 4.5, PPG 4.5, Januvia 370 mg/kg/mouse.
The mark [6] stands for this setting: 0 point, PPC 9.0, PPD 6.75, PPF 4.5, PPG 4.5, DPP4I 370 mg/kg/mouse.
Setting [7] is: 30-minute time point after glucose in water.

“Also recorded” adds a separate entry of the source.

Consider `CC(C)=CCC/C(C)=C/Cc1c([C@@H]2CC(=O)c3c(O)cc(O)cc3O2)ccc(O)c1O` [PPD, (S,E)-2-(2-(3,7-dimethylocta-2,6-dien-1-yl)-3,4-dihydroxyphenyl)-5,7-dihydroxy-3,4-dihydro-2H-1-benzopyran-4-one], for which the “modulation of blood glucose” value in assay [1] is “highly effectively modulated”. Besides, the blood glucose is reported as 400 mg/dL in assay [1] (setting [5]) and 330 mg/dL in assay [1] (at 0 week). For the same compound, the “effect on feedstuff intake” value in assay [2] is reported as “significantly inhibited feedstuff intake”. The feedstuff intake in assay [2] (at 1 week), in assay [2] (at 6 weeks) and in assay [2] (at 8 weeks) was 7.2 g/mouse each time. For the same compound, in assay [3], the “effect on water intake” value is recorded as “significantly inhibited water intake”. The figures for the water intake in assay [3] (at 1 week), in assay [3] (at 6 weeks) and in assay [3] (at 8 weeks) were 8.0 mL/mouse, 14.0 mL/mouse and 16.0 mL/mouse, respectively. Also, the “value of blood glucose in glucose tolerance test” value (“value of blood glucose” below) is recorded as “about 380 mg/dL” in assay [4] (setting [6]), “about 530 mg/dL” in assay [4] (setting [7]), “about 490 mg/dL” in assay [4] (120-minute time point) and 460 mg/dL in assay [4] (180-minute time point). Besides, the “AUC value for blood glucose (integral area)” value (shortened to “AUC value for blood glucose”) in assay [4] is listed as “about 8.7×10^4”. Further, the “extent of reduction of AUC compared with the STZ group” value (“extent of reduction of AUC” below) in assay [4] was determined as 16.2%.

As for `CC(C)=CCC/C(C)=C/Cc1c(O)cc2c(c1O)C(=O)C[C@@H](c1ccc(O)c(O)c1)O2` [PPC, (S,E)-2-(3,4-dihydroxyphenyl)-6-(3,7-dimethylocta-2,6-dien-1-yl)-5,7-dihydroxy-3,4-dihydro-2H-1-benzopyran-4-one], in assay [1], the “modulation of blood glucose” value was “highly effectively modulated”. The blood glucose in assay [1] (setting [5]) is 298 mg/dL; in assay [1] (at 0 week) it was 330 mg/dL. Also, the “effect on feedstuff intake” value in assay [2] is recorded as “significantly inhibited feedstuff intake”. The feedstuff intake in assay [2] (at 1 week) worked out at 7.2 g/mouse; in assay [2] (at 6 weeks), 8.0 g/mouse; in assay [2] (at 8 weeks), 7.9 g/mouse. Further, the “effect on water intake” value in assay [3] is recorded as “significantly inhibited water intake”. Moreover, the water intake in assay [3] (at 1 week) came out at 8.2 mL/mouse; in assay [3] (at 6 weeks), 16.0 mL/mouse; in assay [3] (at 8 weeks) it was 24.0 mL/mouse. Besides, the “value of blood glucose” value is on record as “about 350 mg/dL” in assay [4] (setting [6]), “about 450 mg/dL” in assay [4] (setting [7]), “about 430 mg/dL” in assay [4] (120-minute time point) and 400 mg/dL in assay [4] (180-minute time point). Also, in assay [4], the “AUC value for blood glucose” value is “about 8.0×10^4”. In assay [4], the “extent of reduction of AUC” value is reported as 28.2%.

Take `CC(C)=CCC/C(C)=C/Cc1cc([C@@H]2CC(=O)c3c(O)cc(O)cc3O2)cc(O)c1O` [PPF, (S,E)-2-(3-(3,7-dimethylocta-2,6-dien-1-yl)-4,5-dihydroxyphenyl)-5,7-dihydroxy-3,4-dihydro-2H-1-benzopyran-4-one]: in assay [1], the “modulation of blood glucose” value was “effectively highly modulated”. The blood glucose amounted to 398 mg/dL in assay [1] (setting [5]) and 330 mg/dL in assay [1] (at 0 week). Besides, the “effect on feedstuff intake” value in assay [2] is reported as “significantly inhibited feedstuff intake”. The feedstuff intake in assay [2] (at 1 week) is 6.3 g/mouse; in assay [2] (at 6 weeks) it was 7.0 g/mouse; in assay [2] (at 8 weeks) it was 6.3 g/mouse. Further, the water intake in assay [3] (at 1 week) is listed as 8.0 mL/mouse; in assay [3] (at 6 weeks), 13.0 mL/mouse; in assay [3] (at 8 weeks) it was 10.0 mL/mouse. Further, the “value of blood glucose” value in assay [4] (setting [6]) was “about 390 mg/dL”; in assay [4] (setting [7]), “about 525 mg/dL”; in assay [4] (120-minute time point) it was “about 420 mg/dL”; in assay [4] (180-minute time point), 430 mg/dL. Further, in assay [4], the “AUC value for blood glucose” value is on record as “about 8.2×10^4”. For the same compound, the “extent of reduction of AUC” value in assay [4] was 15.0%.

On to `CC(C)=CCC/C(C)=C/Cc1c([C@@H]2CC(=O)c3c(cc(O)c(CC=C(C)C)c3O)O2)ccc(O)c1O` [PPG, (S,E)-2-(2-(3,7-dimethylocta-2,6-dien-1-yl)-3,4-dihydroxyphenyl)-5,7-dihydroxy-6-(3-methylbut-2-en-1-yl)-3,4-dihydro-2H-1-benzopyran-4-one], for which the “modulation of blood glucose” value in assay [1] is listed as “higher activity for modulation of blood glucose than DPP4I; also recorded: the most effective compound for modulating blood glucose”. The blood glucose was found to be 298 mg/dL in assay [1] (setting [5]) and 330 mg/dL in assay [1] (at 0 week). The “effect on feedstuff intake” value in assay [2] is “significantly inhibited feedstuff intake”. In addition, the values for the feedstuff intake in assay [2] (at 1 week), in assay [2] (at 6 weeks) and in assay [2] (at 8 weeks) were 4.8 g/mouse, 7.0 g/mouse and 7.2 g/mouse, respectively. The water intake in assay [3] (at 1 week) was 6.5 mL/mouse; in assay [3] (at 6 weeks) it was 9.0 mL/mouse; in assay [3] (at 8 weeks), 9.0 mL/mouse. Moreover, the “value of blood glucose” value in assay [4] (setting [6]) is “about 385 mg/dL”; in assay [4] (setting [7]), “about 525 mg/dL”; in assay [4] (120-minute time point), “about 380 mg/dL”; in assay [4] (180-minute time point), 350 mg/dL. For the same compound, the “AUC value for blood glucose” value in assay [4] was “about 7.8×10^4”. Besides, the “extent of reduction of AUC” value in assay [4] was determined as 31.7%. The “efficacy in glucose tolerance test” value in assay [4] (compared to the STZ group) is “more excellent efficacy”.

Source of the values: US9457007B2, “Prenylflavanone compounds for modulating diabetes” (NATUREWISE BIOTECH & MEDICALS CORPORATION, priority 2013, dated 2016).
